What was measured:
[1] = tested on: AR; assay: AR transactivation dual-luciferase assay with supervillin (Example 6); assay type: cell-based, human
Protocol: In AR transactivation activity assays, transfections were performed using SuperFect (Qiagen, Chatsworth, Calif.) following protocols described in manual provided by Qiagen. Briefly, cells were plated on 35 mm dishes and after 24 h were transfected using the SuperFect kit. The total DNA amount was adjusted to 2 μg with pSG5 or pEGFP vectors. The medium was changed to DMEM with 10% CD-FBS 2 h after transfection. After 24 h, the DMEM with 10% CD-FBS was changed again, and the cells were treated with various steroids. Cells were harvested after 24 h for dual-luciferase assay as described in protocol provided by Promega. At least three independent experiments were carried out in each case.

[2] = tested on: p27^KIP1; assay: Western blot of p27KIP1 in PC-3(AR2) cells; assay type: cell-based, human; conditions: 10 nM DHT
Protocol: 41. […] (A) C2C12, COS-1, DU145 and PC-3 cell lines were co-transfected with 30 ng pSG5-AR, 0.5 μg MMTV-Luc, 1 ng pRL-SV40, various amounts of pSG5-bSV as indicated, and adjusted to total amount of 2 μg DNA with pSG5. The assay method was the same as FIG. 2. After measuring the luciferase activity, values relative to lane 1 were calculated. Results are the mean±S.D. of three independent experiments. (B) PC-3 was co-transfected with 30 ng pSG5-AR, 1.5 μg pSG5-bSV, 1 ng pRL-SV40, and 0.5 μg reporter gene as indicated by using SuperFect. […] (C) PC-3(AR2) cell line was transfected with EGFP or EGFP-bSV expressing vector using SuperFect. […] Proteins extracted from cells were loaded on 15% SDS-PAGE and analyzed by western blotting. The intensity of each p27 band was quantified and normalized with control protein which is a non-specific band pick up by the antibody in the same blot. The relative intensities to lane 1 were calculated.
478. Protein samples extracted from the cell were separated on 15% SDS-PAGE and transferred to nitrocellulose membranes. Membranes were incubated 1 h with 5% non-fat milk in TBST at room temperature, followed by the antibodies against p27^(KIP1) (Santa Cruz), followed by AP conjugated goat-antimouse antibody. Blots were developed using the AP developing reagent from Bio-Rad. Band intensity was quantitated by Collage® image analysis software (Fotodyne Inc.).

[3] = biological target: T1, AR N-terminus and AR C-terminus (Homo sapiens, UniProt P10275); assay: Mammalian two-hybrid assay of AR N-C interaction in PC-3 cells; assay type: cell-based; conditions: DHT
T1 construct: AR DBD plus LBD (GST-AR-DL); expressed in transfected cells; host or cells: PC-3 cells (human prostate cancer line)
T1 sequence (P10275 555-920 limits assumed): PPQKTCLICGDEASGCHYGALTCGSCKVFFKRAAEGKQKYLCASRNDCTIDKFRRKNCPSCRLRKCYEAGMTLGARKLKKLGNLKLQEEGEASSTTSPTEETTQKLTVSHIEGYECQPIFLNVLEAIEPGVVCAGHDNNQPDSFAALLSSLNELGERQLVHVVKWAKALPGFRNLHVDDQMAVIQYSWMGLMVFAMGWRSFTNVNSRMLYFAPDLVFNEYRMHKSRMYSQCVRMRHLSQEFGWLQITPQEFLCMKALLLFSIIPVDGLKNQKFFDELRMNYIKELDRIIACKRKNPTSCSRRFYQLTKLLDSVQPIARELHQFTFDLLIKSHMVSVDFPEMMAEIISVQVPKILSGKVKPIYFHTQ
T1 sequence (P10275 1-559 partner limits assumed): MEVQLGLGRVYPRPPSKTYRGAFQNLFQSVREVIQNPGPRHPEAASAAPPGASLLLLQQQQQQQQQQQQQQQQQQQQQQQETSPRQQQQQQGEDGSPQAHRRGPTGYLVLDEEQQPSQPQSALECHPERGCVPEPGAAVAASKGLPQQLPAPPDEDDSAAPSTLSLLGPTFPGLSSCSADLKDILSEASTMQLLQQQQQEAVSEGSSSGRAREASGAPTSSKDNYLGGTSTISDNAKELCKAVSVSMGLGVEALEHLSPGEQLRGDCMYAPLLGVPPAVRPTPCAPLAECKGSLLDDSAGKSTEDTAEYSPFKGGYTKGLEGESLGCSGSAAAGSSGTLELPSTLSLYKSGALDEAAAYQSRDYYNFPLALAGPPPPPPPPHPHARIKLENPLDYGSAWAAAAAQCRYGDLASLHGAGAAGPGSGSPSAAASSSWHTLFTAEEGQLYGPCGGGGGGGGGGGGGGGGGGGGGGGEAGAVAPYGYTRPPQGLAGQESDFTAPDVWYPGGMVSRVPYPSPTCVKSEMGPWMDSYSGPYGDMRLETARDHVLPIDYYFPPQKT
Protocol: 44. […] PC-3 cells were transfected with 30 ng plasmids expressing Gal4(DBD)-AR-DL, VP16 or VP16-ARN combined with 1.5 μg pSG5, pSG5-bSV, -ARA55, or -SRC-1α as indicated. The reporter plasmid pG5-Luc (0.5 μg) and control plasmid pRL-Luc (1 ng) were transfected to every sample. The assay was carried out as described in FIG. 29C.
474. Mouse myoblast cell line (C2C12), human prostate cancer cell lines (PC-3 and DU145), and monkey kidney fibroblast cell line (COS-1) were maintained in Dulbecco's minimum essential medium (DMEM) containing penicillin (25 units/ml), streptomycin ([…]), and 10% fetal bovine serum (FBS). In mammalian two-hybrid assay, transfections were performed using the calcium phosphate precipitation method as described previously (15). Briefly, 1.5-3×10^5 cells were plated on 35-mm dishes for 24 h, and the medium was changed to DMEM containing 10% charcol-dextran stripped FBS (CD-FBS) 2 h before transfection. Cells were transfected with 0.5 μg plasmids expressing Gal4(DBD) and VP-16 fusion proteins as indicated. Gal4 response element controlled Firefly luciferase expression plasmid, pG5-Luc, was used as reporter gene. A Renilla luciferase expression plasmid pRL-SV40 was used as an internal control for transfection efficiency. The total amount of DNA was adjusted to 5 μg with pCMX-VP16 vectors. […]

Chain of AR (P10275 with tags, fused parts or gaps DEL79-80/DUP473-473): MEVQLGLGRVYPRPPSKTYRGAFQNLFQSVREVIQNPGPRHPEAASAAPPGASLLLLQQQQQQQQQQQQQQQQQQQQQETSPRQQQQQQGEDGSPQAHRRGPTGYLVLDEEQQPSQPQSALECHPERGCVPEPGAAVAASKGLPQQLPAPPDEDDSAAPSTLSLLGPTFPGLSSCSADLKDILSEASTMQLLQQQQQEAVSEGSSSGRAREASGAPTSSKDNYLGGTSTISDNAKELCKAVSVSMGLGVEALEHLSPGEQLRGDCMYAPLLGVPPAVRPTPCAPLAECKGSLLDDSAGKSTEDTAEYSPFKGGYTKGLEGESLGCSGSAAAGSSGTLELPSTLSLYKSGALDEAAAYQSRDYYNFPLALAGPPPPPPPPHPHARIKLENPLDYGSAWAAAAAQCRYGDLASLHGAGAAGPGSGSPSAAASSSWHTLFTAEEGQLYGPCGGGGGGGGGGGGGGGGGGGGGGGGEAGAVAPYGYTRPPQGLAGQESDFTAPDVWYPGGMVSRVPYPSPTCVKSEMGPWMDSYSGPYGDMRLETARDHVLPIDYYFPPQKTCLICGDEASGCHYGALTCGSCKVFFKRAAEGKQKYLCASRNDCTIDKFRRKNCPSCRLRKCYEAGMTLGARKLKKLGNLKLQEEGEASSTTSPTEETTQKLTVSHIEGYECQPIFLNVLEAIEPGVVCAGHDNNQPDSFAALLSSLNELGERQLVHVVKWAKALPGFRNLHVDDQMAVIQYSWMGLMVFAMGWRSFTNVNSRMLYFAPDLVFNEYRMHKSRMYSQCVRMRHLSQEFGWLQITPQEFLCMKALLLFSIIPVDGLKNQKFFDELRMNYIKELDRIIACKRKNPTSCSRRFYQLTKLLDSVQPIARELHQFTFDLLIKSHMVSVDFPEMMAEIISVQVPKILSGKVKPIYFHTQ

enhancement of AR transactivation ([1]; C2C12 muscle cells, bSV:AR plasmids 25:1 and 50:1, DHT): 3-8 fold
AR transactivation with EGFP-bSV construct ([1]; COS-1 cells, 10 nM DHT, MMTV-Luc): 132 fold
effect on Adiol induced AR transactivation ([1]; COS-1 cells, 10 nM steroid): slightly enhances
effect on E2- or HF-induced AR transactivation ([1]; COS-1 cells, 10 nM steroid): marginal effect
effect on T and DHT induced AR transactivation ([1]; COS-1 cells, 10 nM steroid): significantly enhances
effect on AR N-C interaction [3]: mild suppressive effect
Substance: SV: supervillin, 205 kDa actin binding protein; bovine SV (a.a. 1-1792) used in reporter assays
p27^(KIP1) protein expression [2]: further enhanced p27^(KIP1) protein expression

From patent publication US20060270591A1, “Androgen receptor coregulators” (priority 2002, published 2006)
